{
  "source": "ChEMBL document CHEMBL1201862",
  "about": "“PubChem BioAssay data set” (2004)",
  "key": {"SUMO-activating enzyme": {"target": "SUMO-activating enzyme (Homo sapiens, UniProt Q9UBT2)", "sequence (Q9UBE0 whole entry)": "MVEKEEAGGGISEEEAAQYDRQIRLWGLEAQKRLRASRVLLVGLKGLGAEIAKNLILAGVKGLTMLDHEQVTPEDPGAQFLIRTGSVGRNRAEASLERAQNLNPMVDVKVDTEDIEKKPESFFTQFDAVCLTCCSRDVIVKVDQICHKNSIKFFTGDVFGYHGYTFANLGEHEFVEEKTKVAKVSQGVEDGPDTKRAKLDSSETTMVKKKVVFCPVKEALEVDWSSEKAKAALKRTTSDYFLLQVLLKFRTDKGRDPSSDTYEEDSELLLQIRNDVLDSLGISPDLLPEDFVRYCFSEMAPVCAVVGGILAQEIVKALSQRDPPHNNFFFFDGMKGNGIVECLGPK", "sequence (Q9UBT2 whole entry)": "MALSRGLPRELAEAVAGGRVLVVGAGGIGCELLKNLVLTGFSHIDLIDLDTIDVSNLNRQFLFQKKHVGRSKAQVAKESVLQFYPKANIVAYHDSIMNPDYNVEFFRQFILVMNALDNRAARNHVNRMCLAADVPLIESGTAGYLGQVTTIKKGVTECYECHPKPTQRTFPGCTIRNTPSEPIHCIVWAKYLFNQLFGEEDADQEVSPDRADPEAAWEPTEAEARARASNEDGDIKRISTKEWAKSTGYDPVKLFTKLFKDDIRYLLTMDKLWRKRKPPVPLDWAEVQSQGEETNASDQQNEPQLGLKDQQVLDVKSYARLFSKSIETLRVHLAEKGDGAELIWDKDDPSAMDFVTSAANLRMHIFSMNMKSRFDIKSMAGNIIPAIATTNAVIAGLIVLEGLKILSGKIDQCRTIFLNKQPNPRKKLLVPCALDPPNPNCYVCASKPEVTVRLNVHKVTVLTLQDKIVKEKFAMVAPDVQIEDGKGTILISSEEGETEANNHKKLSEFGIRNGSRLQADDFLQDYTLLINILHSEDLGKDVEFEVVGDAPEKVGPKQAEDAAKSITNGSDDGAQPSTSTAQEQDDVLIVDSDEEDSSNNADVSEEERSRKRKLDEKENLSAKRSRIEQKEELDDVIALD", "assay": "blockers of UBC9-mediated SUMO conjugation – biochemical, AlphaScreen, SUMOylation inhibitor project, confirmation (AID 2018)", "type": "functional"}, "[1]": {"assay": "blockers of HIV-1 envelope-mediated cell-cell fusion – cherry-pick, dose response (AID 652057)", "type": "functional, cell-based"}, "[2]": {"assay": "HIV-1 AD8 envelope cell-cell fusion blockers – cherry-pick, dose response (AID 652062);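 note: potency is for inhibitors of fusion seen as a drop in luminescence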", "type": "functional, cell-based"}, "[3]": {"assay": "viability loss in CEM21 cells – cell-based, CellTiter-Glo luminescence, cherry-picked, cytotoxicity control for viral fusion inhibitor project, dose response (AID 652042);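 note: potency for signal decrease meaning cytotoxicity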", "type": "functional"}, "[4]": {"assay": "off-target signal loss in HeLa-CEM21 co-culture – HeLa F-luc CTL cells, cherry-picked, counter-screen for HIV-1 Env fusion inhibitor project, dose response (AID 652040);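 note: potency for signal decrease marking cytotoxic or nonspecific inhibition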", "type": "functional, cell-based"}, "[5]": {"assay": "blockers of HIV-1 ZM109 envelope-driven cell-cell fusion – HeLa effector, CEM target cells, luciferase, cherry-pick, dose response (AID 652058)", "type": "functional, cell-based"}, "A549": {"test_system": "A549", "assay": "viability loss in A549 cells – cell-based, plate reader, cherry-pick samples, cytotoxicity control, dose response (AID 687028)", "type": "functional", "conditions": "Homo sapiens"}, "[6]": {"target": "Botulinum neurotoxin type F (Clostridium botulinum, UniProt P30996)", "sequence (P30996 1-436 limits assumed)": "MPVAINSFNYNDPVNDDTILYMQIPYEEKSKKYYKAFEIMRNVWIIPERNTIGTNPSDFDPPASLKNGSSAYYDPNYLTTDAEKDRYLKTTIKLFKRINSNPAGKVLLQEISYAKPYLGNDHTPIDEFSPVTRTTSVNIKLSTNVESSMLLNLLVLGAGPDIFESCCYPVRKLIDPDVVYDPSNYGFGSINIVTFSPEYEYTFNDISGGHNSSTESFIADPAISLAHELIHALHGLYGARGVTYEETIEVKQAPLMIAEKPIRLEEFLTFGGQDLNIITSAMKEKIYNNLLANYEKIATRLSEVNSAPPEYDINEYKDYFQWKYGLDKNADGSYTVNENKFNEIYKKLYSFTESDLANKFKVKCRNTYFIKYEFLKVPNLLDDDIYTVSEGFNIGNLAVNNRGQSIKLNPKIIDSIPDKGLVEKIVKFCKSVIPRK", "assay": "High-throughput multiplex microsphere dose response for inhibitors of toxin protease, specifically Botulinum neurotoxin light chain F protease, compounds from Cherry Pick 02.", "type": "functional", "conditions": "read-out: EC50_MICROM"}, "[7]": {"assay": "CMV-driven luciferase expression suppression in HEK293 – cell-based, luminescence, dry powder, counter-screen for Pax8 inhibitor project, dose response (AID 743020)", "type": "functional"}, "Paired box protein Pax-8": {"target": "Paired box protein Pax-8 (Homo sapiens, UniProt Q06710)", "sequence (Q06710 whole entry)": "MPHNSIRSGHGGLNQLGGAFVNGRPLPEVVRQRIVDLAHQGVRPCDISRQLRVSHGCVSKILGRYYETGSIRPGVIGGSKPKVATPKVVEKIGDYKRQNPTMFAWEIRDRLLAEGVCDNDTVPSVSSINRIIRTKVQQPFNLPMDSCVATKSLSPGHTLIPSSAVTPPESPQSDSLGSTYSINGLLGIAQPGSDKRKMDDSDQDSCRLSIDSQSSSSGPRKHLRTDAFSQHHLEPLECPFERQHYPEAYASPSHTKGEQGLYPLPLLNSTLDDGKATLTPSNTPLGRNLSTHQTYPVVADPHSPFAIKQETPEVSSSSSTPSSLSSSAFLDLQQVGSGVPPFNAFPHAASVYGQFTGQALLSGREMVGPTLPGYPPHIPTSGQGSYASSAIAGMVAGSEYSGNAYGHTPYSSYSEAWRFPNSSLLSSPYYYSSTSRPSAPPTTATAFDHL", "assay": "PAX8 transcriptional activity inhibition in RMG-I – RMG-I cells, luciferase, cherry-pick, dose response (AID 687027);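 note: luciferase reporter driven by Pax8 target thyroperoxidase promoter measured by SteadyGlo luminescence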", "type": "functional, cell-based"}, "[8]": {"assay": "IGROV1 cell killing – plate reader, dry powder samples, PAX8 inhibitor project, dose response (AID 743043)", "type": "functional, cell-based", "conditions": "IGROV-1"}, "[9]": {"assay": "A2780 cell killing – plate reader, dry powder samples, cytotoxicity control, dose response (AID 743046)", "type": "functional, cell-based"}, "[10]": {"assay": "OVCAR8 cell viability loss – plate reader, dry powder samples, PAX8 project, dose response (AID 743197)", "type": "functional, cell-based", "conditions": "OVCAR-8"}, "[11]": {"assay": "OVCAR-3 cell viability loss – plate reader, dry powder samples, PAX8 inhibitor project, dose response (AID 743044)", "type": "functional, cell-based"}, "[12]": {"assay": "cell viability loss, ATP luminescence – CellTiter-Glo, 24 h, powder samples, set 7, cytotoxicity control for SR-BI HDL uptake inhibitor project, dose response (AID 624026)", "type": "functional, cell-based"}, "[13]": {"target": "T1, Scavenger receptor class B member 1 (Mus musculus, UniProt Q61009)", "T1 sequence (Q61009 whole entry)": "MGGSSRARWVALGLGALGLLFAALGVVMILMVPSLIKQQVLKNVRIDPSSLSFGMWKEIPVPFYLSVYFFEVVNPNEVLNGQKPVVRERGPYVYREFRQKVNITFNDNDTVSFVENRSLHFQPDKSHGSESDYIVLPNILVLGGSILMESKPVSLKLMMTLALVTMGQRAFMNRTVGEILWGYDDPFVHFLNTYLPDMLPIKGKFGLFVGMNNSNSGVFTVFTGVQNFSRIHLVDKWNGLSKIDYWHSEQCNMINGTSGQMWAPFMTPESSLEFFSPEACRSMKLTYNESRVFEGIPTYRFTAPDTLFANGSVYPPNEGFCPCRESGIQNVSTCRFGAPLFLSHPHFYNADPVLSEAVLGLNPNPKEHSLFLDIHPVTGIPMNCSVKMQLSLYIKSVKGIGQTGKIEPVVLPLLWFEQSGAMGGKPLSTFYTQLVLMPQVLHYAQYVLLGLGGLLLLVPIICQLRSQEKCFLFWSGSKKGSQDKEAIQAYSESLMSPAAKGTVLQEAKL", "assay": "blockers of DiI-HDL lipid transfer via SR-BI – cell-based, ldlA[mSR-BI] CHO, DiI fluorescence, dry powder, set 10, dose response (AID 624029)", "type": "functional"}, "[14]": {"target": "T1, Scavenger receptor class B member 1", "assay": "mouse SR-BI DiI-HDL transfer blockers – ldlA[mSR-BI] CHO cells, fluorescence plate reader, dry powder, set 9, dose response (AID 623880)", "type": "functional, cell-based"}, "Protein Wnt-3a": {"target": "Protein Wnt-3a (Mus musculus, UniProt P27467)", "sequence (P27467 whole entry)": "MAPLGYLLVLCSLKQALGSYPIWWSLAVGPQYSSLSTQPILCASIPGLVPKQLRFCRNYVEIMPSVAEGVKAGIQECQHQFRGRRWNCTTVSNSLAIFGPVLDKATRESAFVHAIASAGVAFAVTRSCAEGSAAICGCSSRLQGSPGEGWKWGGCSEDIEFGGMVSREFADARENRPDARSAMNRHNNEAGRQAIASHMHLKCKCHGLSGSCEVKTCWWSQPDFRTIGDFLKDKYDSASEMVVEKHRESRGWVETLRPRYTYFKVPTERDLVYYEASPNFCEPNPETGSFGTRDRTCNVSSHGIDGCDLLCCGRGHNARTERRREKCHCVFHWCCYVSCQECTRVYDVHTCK", "assay": "SAR analysis of small molecule antagonists of Gli-SUFU in a Wnt3a luminescent reporter assay.", "type": "functional"}},
  "note": "Active and inactive are the calls of the source.",
  "data": [
    {"compound": "Cc1ccc(C)c(OCC(=O)Nc2nonc2NC(=O)COc2cc(C)ccc2C)c1", "values": [
      {"measurement": "IC50", "setting": "SUMO-activating enzyme", "result": "45.4 µM (active)"},
      {"measurement": "AC50", "setting": "[1]", "result": "2.68 µM (active)"},
      {"measurement": "AC50", "setting": "[2]", "result": "4.31 µM (active)"},
      {"measurement": "AC50", "setting": "[3]", "result": "25.4 µM (active)"},
      {"measurement": "AC50", "setting": "[4]", "result": "6.79 µM (active)"},
      {"measurement": "AC50", "setting": "[5]", "result": "1.4 µM (active)"}
    ]},
    {"compound": "CCN(c1ccccc1)S(=O)(=O)c1ccc(OC)c(NC(=O)C2CCC2)c1", "values": [
      {"measurement": "AC50", "setting": "A549", "result": "35.7 µM (active)"}
    ]},
    {"compound": "COc1ccccc1Cc1c(-c2ccc(C)cc2)nc2cc(C)c(Br)c(C)n12", "values": [
      {"measurement": "EC50", "setting": "[6]", "result": "> 20 µM (inactive)"}
    ]},
    {"compound": "C[C@@H]1CCCCO[C@H](CN(C)Cc2ccc(C(F)(F)F)cc2)[C@@H](C)CN([C@@H](C)CO)C(=O)c2cc(NC(=O)Nc3ccc(F)cc3)ccc2O1", "values": [
      {"measurement": "AC50", "setting": "[7]", "result": "35.7 µM (active)"},
      {"measurement": "AC50", "setting": "Paired box protein Pax-8", "result": "5.36 µM (active)"},
      {"measurement": "AC50", "setting": "[8]", "result": "43.6 µM (active)"},
      {"measurement": "AC50", "setting": "[9]", "result": "51.7 µM (active)"},
      {"measurement": "AC50", "setting": "[10]", "result": "32.1 µM (active)"},
      {"measurement": "AC50", "setting": "[11]", "result": "21.4 µM (active)"}
    ]},
    {"compound": "CC(=O)Nc1ccc(Cl)c(C(=O)Nc2ccc(N3CCN(C(=O)OC(C)(C)C)CC3)cc2)c1", "values": [
      {"measurement": "AC50", "setting": "[12]", "result": "> 70 µM (inactive)"},
      {"measurement": "AC50", "setting": "[13]", "result": "0.00402 µM (active)"},
      {"measurement": "AC50", "setting": "[14]", "result": "0.00659 µM (active)"}
    ]},
    {"compound": "COc1ccccc1C(=O)Nc1cc(N2CCCCC2)ncn1", "values": [
      {"measurement": "IC50", "setting": "Protein Wnt-3a", "result": "> 21.8 µM (inactive)"}
    ]}
  ]
}
